Our source for the IC50 values is publication PMC11713119, “Optimizing metabolic stability of phosphodiesterase 5 inhibitors: Discovery of a potent N‐(pyridin‐3‐ylmethyl)quinoline derivative targeting synaptic plasticity” (Alzheimer's & Dementia, 2025).

The target in this assay is T1, Phosphodiesterase 5 (PDE5) (Homo sapiens, UniProt O76074).
T1 construct: gene PDE5A
The assay is described as follows: PDE5 inhibition IC50 (assay details not given). It counts as biochemical.

What is called IC50 is the concentration needed to halve the response being measured.

Consider `COc1ccc(CNc2c(CO)cnc3c(C4CC4)cc(C#N)cc23)cn1` [4b, 8‐cyclopropyl‐3‐(hydroxymethyl)‐4‐(((6‐methoxypyridin‐3‐yl)methyl)amino)quinoline‐6‐carbonitrile], for which inhibition was half-maximal at 20 nM (IC50).

Regarding `COc1ccc(CNc2c(CO)cnc3c(C4CC4)cc(C#N)cc23)cc1Cl` [7a, 4‐((3‐chloro‐4‐methoxybenzyl)amino)‐8‐cyclopropyl‐3‐(hydroxymethyl)quinoline‐6‐carbonitrile], the IC50 was determined as 0.27 nM. This IC50 lies about 74-fold lower than the previous one.
